# Values quoted from earlier work, collected in US20100120780A1, “TREATMENTS FOR PREMATURE EJACULATION IN HUMANS” (priority 2007, published 2010).
# Where a name gives a salt, the structure may show the parent alone.
# Legend:
# [1] = target: μ-opiate receptors (Homo sapiens, UniProt P35372)
# [2] = for accumulation: multiple dose treatment with tramadol
# [3] = 0.2M sodium chloride
# [4] = rats
# [5] = target: phosphodiesterase type 5 (PDE5) (Homo sapiens, UniProt O76074); conditions: PDE5 vs PDE6
# [6] = oral administration, Viagra formulation
# Chain of μ-opiate receptors (P35372 whole entry): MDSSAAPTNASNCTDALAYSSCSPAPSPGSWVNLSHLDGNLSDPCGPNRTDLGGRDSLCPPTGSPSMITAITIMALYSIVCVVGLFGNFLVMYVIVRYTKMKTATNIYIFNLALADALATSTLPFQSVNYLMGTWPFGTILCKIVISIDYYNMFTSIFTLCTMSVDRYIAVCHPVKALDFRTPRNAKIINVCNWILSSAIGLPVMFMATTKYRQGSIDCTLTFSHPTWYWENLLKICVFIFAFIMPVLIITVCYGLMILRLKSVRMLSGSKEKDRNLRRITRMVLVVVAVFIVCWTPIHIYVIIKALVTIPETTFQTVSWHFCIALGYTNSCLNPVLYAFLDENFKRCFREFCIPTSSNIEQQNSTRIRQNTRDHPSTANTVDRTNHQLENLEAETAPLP
structure (smiles),measurement,setting,value
"COc1cccc(C2(O)CCCCC2CN(C)C)c1 (racemic) [tramadol, (+/−)-trans (RR,SS)-2-[(di-methylamino)methyl]-1-(3-methoxyphenyl)cyclohexanol]","affinity for μ-opiate receptors, fold less than codeine",[1]; relative to codeine,10 fold
same,"affinity for μ-opiate receptors, fold less than d-propoxyphene",[1]; relative to d-propoxyphene,100 fold
same,affinity for μ-opiate receptors compared to dextromethorphan,[1]; relative to dextromethorphan,equivalent
same,"affinity for μ-opiate receptors, fold less than morphine",[1]; relative to morphine,"6,000 fold"
same,accumulation,[2],approximately 2 fold
same,time to peak serum concentrations,[2]; oral administration,≤ 2 h
same,duration of the analgesic effect,single oral dose of tramadol 100 mg,about 6 hours
"CN(C)C[C@H]1CCCC[C@]1(O)c1cccc(O)c1 [M1 derivative, O-desmethyltramadol]",accumulation,[2],approximately 2 fold
same,analgesic potency relative to the parent drug,relative to tramadol,at least twice
"COc1ccc(C(CN(C)C)C2(O)CCCCC2)cc1 (racemic) [Venlafaxine hydrochloride, (R/S)-1-[2-(dimethylamino)-1-(4-methoxyphenyl)ethyl]cyclohexanol]",octanol:water partition coefficient,[3],0.43
"COc1cc(CNC(=O)CCCCC=CC(C)C)ccc1O [capsaicin, 8-methyl-N-vanillyl-6-nonenamide]","time to distribution to the brain, spinal cord, liver and blood",[4]; intravenous administration,≤ 20 min
same,absorption in the jejunum,"[4]; oral dosing, after 3 hours",85%
"CCCc1nn(C)c2c(=O)[nH]c(-c3cc(S(=O)(=O)N4CCN(C)CC4)ccc3OCC)nc12 [sildenafil, 1-[[3-(6,7-dihydro-1-methyl-7-oxo-3-propyl-1H-pyrazolo[4,3-d]pyrimidin-5-yl)-4-ethoxyphenyl]sulfonyl]-4-methyl piperazine]",potency for PDE5 compared to PDE6,[5],about 10 fold
same,absolute bioavailability,[6],about 40%
